Structures can show the parent of a compound that is named as a salt.
Tests used:
HPK1 = HPK1 (Homo sapiens (Human), UniProt Q92918); assay: HPK1 kinase activity inhibition test (ADP-Glo, luminescence); format: biochemical; conditions: HPK1 5 nM, ATP 2 μM, read-out: IC50, inhibitory effects of compounds on HPK1 kinase activity
In short: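 HPK1 autophosphorylation was run without added substrate. Kinase and compound were preincubated 10 min at 25° C., then ATP was added for 60 min at 25° C. ADP formed was detected by ADP-Glo luminescence, and IC50 was taken from a four-parameter nonlinear fit.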

Human Jurkat-E6-1 cells = assay: Measurement of IL-2 secretion of Jurkat cells by ELISA; format: cell-based; conditions: anti-CD3/anti-CD28 stimulation 24 hours; for activity at 3 µM / activity at 1 µM: Homo sapiens, Jurkat E6.1, read-out: Percentage of the amount of IL-2 secreted from compound treated/DMSO-treated cells; for activity at 1 µM: test compound 1.0 μM
In short: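 Jurkat-E6-1 cells pre-incubated with compound for 30 min at 37° C, then stimulated 24 h with plate-bound anti-CD3 plus soluble anti-CD28. Secreted IL-2 in medium quantified by sandwich ELISA against a standard curve; expressed as percent of DMSO-treated cells.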

Sequence of HPK1 (Q92918 whole entry): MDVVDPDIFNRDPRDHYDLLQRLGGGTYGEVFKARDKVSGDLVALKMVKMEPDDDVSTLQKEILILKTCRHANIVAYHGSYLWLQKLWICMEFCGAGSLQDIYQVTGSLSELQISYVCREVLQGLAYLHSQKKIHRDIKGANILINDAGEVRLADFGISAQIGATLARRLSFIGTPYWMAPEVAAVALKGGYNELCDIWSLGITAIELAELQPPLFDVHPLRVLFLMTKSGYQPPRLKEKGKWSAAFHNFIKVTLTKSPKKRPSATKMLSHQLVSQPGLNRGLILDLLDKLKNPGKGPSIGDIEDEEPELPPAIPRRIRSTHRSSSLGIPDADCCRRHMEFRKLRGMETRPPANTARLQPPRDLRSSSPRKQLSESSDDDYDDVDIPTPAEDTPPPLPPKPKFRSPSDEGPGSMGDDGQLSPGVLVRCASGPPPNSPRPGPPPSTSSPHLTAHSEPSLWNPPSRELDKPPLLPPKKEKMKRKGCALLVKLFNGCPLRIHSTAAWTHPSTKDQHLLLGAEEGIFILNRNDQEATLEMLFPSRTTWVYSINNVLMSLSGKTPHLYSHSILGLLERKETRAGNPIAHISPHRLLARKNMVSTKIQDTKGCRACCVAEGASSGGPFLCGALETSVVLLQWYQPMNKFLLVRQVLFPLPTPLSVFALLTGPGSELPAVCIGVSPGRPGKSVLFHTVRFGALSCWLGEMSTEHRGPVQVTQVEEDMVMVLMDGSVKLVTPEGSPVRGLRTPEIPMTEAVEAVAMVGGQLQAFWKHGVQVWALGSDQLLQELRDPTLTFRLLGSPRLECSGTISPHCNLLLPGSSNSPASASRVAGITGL

IC50 (HPK1) [nM]	SMILES	activity at 3 µM (Human Jurkat-E6-1 cells; test compound 3.0 μM) [%]	activity at 1 µM (Human Jurkat-E6-1 cells) [%]	Percentage of the amount of IL-2 secreted from compound treated/DMSO-treated cells (Human Jurkat-E6-1 cells; test compound 3.0 μM) [%]
≤ 50	Cc1cc(C#N)cc(F)c1-n1nc2c(-c3ccc4c(c3)CN(C)CC4)n[nH]c2cc1=O [Compound 170, 3-fluoro-5-methyl-4-(3-(2-methyl-1,2,3,4-tetrahydroisoquinolin-7-yl)-6-oxo-1H-pyrazolo[4,3-c]pyridazin-5(6H)-yl)benzonitrile]		279	
50 to 500	Cc1cc(C#N)cc(F)c1-n1nc2c(-c3ccc4c(c3)CNCC4)n[nH]c2cc1=O [Compound 171, 3-fluoro-5-methyl-4-(3-(1,2,3,4-tetrahydroisoquinolin-7-yl)-6-oxo-1H-pyrazolo[4,3-c]pyridazin-5(6H)-yl)benzonitrile]	220		
≤ 50	Cc1cccc(F)c1-n1nc2c(-c3ccc4c(c3)CN3C(=O)OC[C@@H]3C4)n[nH]c2cc1=O [Compound 177, (S)-7-(5-(2-fluoro-6-methylphenyl)-6-oxo-5,6-dihydro-1H-pyrazolo[4,3-c]pyridazin-3-yl)-10,10a-dihydro-1H-oxazolo[3,4-b]isoquinolin-3(5H)-one]	481		
≤ 50	Cc1cccc(F)c1-n1nc2c(-c3ccc4c(c3)CCN(C3CNC3)C4)n[nH]c2cc1=O [Compound 193]	169		
≤ 50	Cc1cccc(F)c1-n1nc2c(-c3cccc(N4CCN(C)CC4)c3)n[nH]c2cc1=O [Compound 198, 5-(2-fluoro-6-methylphenyl)-3-(3-(4-methylpiperazin-1-yl)phenyl)-1H-pyrazolo[4,3-c]pyridazin-6(5H)-one]	280		
≤ 50	COc1cccc(F)c1-n1nc2c(-c3cccc(N4CCN(C)CC4)c3)n[nH]c2cc1=O [Compound 199, 5-(2-fluoro-6-methoxyphenyl)-3-(3-(4-methylpiperazin-1-yl)phenyl)-1H-pyrazolo[4,3-c]pyridazin-6(5H)-one]		328	
≤ 50	CCc1cccc(F)c1-n1nc2c(-c3cccc(N4CCN(C)CC4)c3)n[nH]c2cc1=O [Compound 200, 5-(2-ethyl-6-fluorophenyl)-3-(3-(4-methylpiperazin-1-yl)phenyl)-1H-pyrazolo[4,3-c]pyridazin-6(5H)-one]	286		
≤ 50	COc1cccc(F)c1-n1nc2c(-c3cc(N4CCN(C)CC4)ccc3F)n[nH]c2cc1=O [Compound 210, 3-(2-fluoro-5-(4-methylpiperazin-1-yl)phenyl)-5-(2-fluoro-6-methoxyphenyl)-1H-pyrazolo[4,3-c]pyridazin-6(5H)-one]		298	

Continued, compound first:

SMILES	IC50 (HPK1) [nM]	activity at 3 µM (Human Jurkat-E6-1 cells; test compound 3.0 μM) [%]	activity at 1 µM (Human Jurkat-E6-1 cells) [%]	Percentage of the amount of IL-2 secreted from compound treated/DMSO-treated cells (Human Jurkat-E6-1 cells; test compound 3.0 μM) [%]
Cc1cccc(F)c1-n1nc2c(-c3ccc4c(c3)CN(C3CC(N)C3)CC4)n[nH]c2cc1=O (centres unmarked) [Compound 163]	50 to 500	117		
Cc1cccc(F)c1-n1nc2c(-c3ccc4c(c3)CN(C3CNC3)CC4)n[nH]c2cc1=O [Compound 164, 3-(2-(azetidin-3-yl)-1,2,3,4-tetrahydroisoquinolin-7-yl)-5-(2-fluoro-6-methylphenyl)-1H-pyrazolo[4,3-c]pyridazin-6(5H)-one hydrochloride]	50 to 500	159		
Cc1cccc(F)c1-n1nc2c(-c3ccc4c(c3)CN(C(C)CO)CC4)n[nH]c2cc1=O (centres unmarked) [Compound 165, 5-(2-fluoro-6-methylphenyl)-3-(2-(1-hydroxylprop-2-yl)-1,2,3,4-tetrahydroisoquinolin-7-yl)-1H-pyrazolo[4,3-c]pyridazin-6(5H)-one]	50 to 500		181	
COc1cccc(F)c1-n1nc2c(-c3cccc(N4CC5CCC(C4)N5C)c3)n[nH]c2cc1=O [Compound 202, 5-(2-fluoro-6-methoxyphenyl)-3-(3-(8-methyl-3,8-diazabicyclo[3.2.1]octan-3-yl)phenyl)-1H-pyrazolo[4,3-c]pyridazin-6(5H)-one]	≤ 50		539	
COc1cccc(F)c1-n1nc2c(-c3cccc(N4CCCC(N)C4)c3)n[nH]c2cc1=O (centres unmarked) [Compound 204]	≤ 50			260

— US20230322789A1, “PYRAZOLOPYRIDAZINONE COMPOUND, AND PHARMACEUTICAL COMPOSITION AND USE THEREOF” (BroadenBio Co., Ltd., priority 2020, published 2023)
